Test results taken from article PMC11172460 (International Journal of Molecular Sciences, 2024).
Values after ≈ are worked out from the molar mass of the structure shown. Values joined by “and” are separate entries in the source; they are usually repeats but may differ in a detail not shown here. Equal entries are not always repeated. Where two headings read alike, the source gives them in different places.

Experiments:
[1] = Hydrolysis kinetics in rat brain homogenates; format: in vitro ADME; conditions: within 3 h, 37 °C, 30 µM
Description: Brains were obtained from male Wistar rats, which were sacrificed by decapitation after a slight isoflurane anesthesia. The brains were immediately separated and homogenized in 5 volumes (w/v) of Tris HCl (50 mM, pH 7.4, 4 °C) using an ultra-Turrax (IKA Werke GmbH & Co. KG, Staufen, Germany) with 3 × 15 s bursts. After centrifugation of the homogenate (3000× g for 15 min at 4 °C), the supernatant was isolated and stored at −80 °C until its use for in vitro kinetic studies. The Lowry procedure was adopted to quantify the total protein concentration in the brain homogenate, resulting in 7.4 ± 0.4 μg protein/μL.
Kinetic analysis of Fer-Ger was performed by its incubation at 37 °C in 3 mL of rat liver or brain homogenates at 30 µM (9.92 µg/mL) final concentration. At defined time intervals, 100 μL of homogenates were withdrawn and immediately treated by quenching them in EtOH (250 µL), then an internal standard (100 μM carbazole dissolved in EtOH, 50 µL) was added. […]
The Fer-Ger degradation in whole blood or homogenates was analyzed as exponential decay plots of its concentrations versus incubation time, and the related half-life values were obtained from the linear regression of the corresponding semi-logarithmic plots. The quality of the fits was evaluated by considering the correlation coefficients (r) and p values. […]
Fer-Ger and its hydrolysis product, Ger, were quantified by HPLC. […]

Solubility measurements = format: physicochemical; conditions: 25 °C, thermodynamic from solid
Description: Solubility measurements of pure Fer-Ger were performed by adding an excess amount of Fer-Ger (about 10 mg) in 5 mL of pure water, DPBS, or a mixture made of DPBS and methanol (70:30 v/v) at 25 °C. The samples were magnetically stirred for 48 h. The supernatant was filtered through a 0.45 μm regenerate-cellulose membrane filter, and 10 µL of the filtered samples were injected into the HPLC-DAD system for Fer-Ger quantification. The study was performed in triplicate.

[2] = In vitro dissolution and release from SLMs; format: physicochemical; conditions: within 6 h, DPBS/MeOH 70:30 v/v, 37 °C
Description: Fer-Ger dissolution and release from the SLMs were evaluated by adding raw Fer-Ger (about 0.1 mg) or SLMs, containing an equivalent amount of Fer-Ger, to 60 mL of a mixture of DPBS and methanol (70:30 v/v). The samples were kept under mechanical stirring at 50 rpm and 37 °C. At defined time intervals, 0.2 mL aliquots of the medium were withdrawn and replaced with an equal volume of fresh fluid. The aliquots were filtered (0.45 μm) and injected (10 μL) into the HPLC apparatus for Fer-Ger quantification. The dissolution or release (%) of Fer-Ger was calculated from its total amount incubated as a free compound or contained in the SLMs, respectively. The data were determined from the average of three independent experiments.

- hydrolysis / stability [1]: total absence of hydrolysis processes
- solubility at 48 h (Solubility measurements; DPBS, aqueous buffer, read-out: solubility in DPBS): 0.24 ± 0.01 µg/mL (≈ 0.726 µM)
- solubility at 48 h (Solubility measurements; DPBS/methanol 70:30 v/v, aqueous with cosolvent or surfactant or cyclodextrin, DPBS and MeOH 70:30 v/v, read-out: solubility in mixture of DPBS and MeOH): 8.1 ± 0.3 µg/mL (≈ 24.5 µM)
- solubility at 48 h (Solubility measurements; pure water, water, read-out: water solubility): 0.26 µg/mL and 0.77 µM
- raw powder solubilized (dissolution) [2]: about 30%
SMILES: COc1cc(/C=C/C(=O)OC/C=C(\C)CCC=C(C)C)ccc1O [Fer-Ger, Geranyl ferulate]
